14 compounds from PubChem BioAssay (NCI) can be followed below.

Molecules are shown by their SMILES.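 Briefly, cells in 96-well plates were exposed to five compound concentrations for 48 h, and endpoints were estimated by linear interpolation. TGI: concentration producing complete growth inhibition.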 Some results are limits rather than exact numbers.

Some test systems named below: MOLT-4 leukemia; M14 melanoma; NCI/ADR-RES ovarian; HT29 colon; SK-MEL-2 melanoma; TK-10 renal; SF-268 CNS; A549 NSCLC; SN12C renal; OVCAR-8 ovarian.
Common to all, as to test: NCI-60 cell line screen, 48 h

With `CCCCCCCCCCCCCCCCCCOCC(O)COP(=O)(O)OCC1OC(n2cc(F)c(=O)[nH]c2=O)CC1O` (stereo unspecified), the TGI in the experiment on MOLT-4 leukemia turned out to be 21.6 µM; in the experiment with M14 melanoma, 15.5 µM; in the experiment on NCI/ADR-RES ovarian it was 22 µM; in the experiment with HT29 colon, 23.6 µM; in the experiment on SK-MEL-2 melanoma, 43.2 µM; in the experiment on TK-10 renal it was 24.6 µM. Besides, the TGI in the experiment on SF-268 CNS was determined as 36.5 µM; in the experiment with A549 NSCLC it was 25.9 µM; in the experiment with SN12C renal it was 27.9 µM; in the experiment on OVCAR-8 ovarian, 18.9 µM.
Regarding `N#CCc1nc(C#N)c(N)o1`, the TGI in the experiment with MOLT-4 leukemia, with M14 melanoma, in the experiment with NCI/ADR-RES ovarian, in the experiment on HT29 colon, with SK-MEL-2 melanoma and in the experiment on TK-10 renal was over 100 µM each time. For the same compound, the TGI in the experiment with SF-268 CNS, in the experiment with A549 NSCLC, in the experiment on SN12C renal and with OVCAR-8 ovarian was over 100 µM each time.
`CSc1nncc(-c2cc3c(c(SC)n2)CCC3)n1`: the TGI in the experiment with M14 melanoma, in the experiment on NCI/ADR-RES ovarian, in the experiment on HT29 colon, in the experiment on SK-MEL-2 melanoma, in the experiment with TK-10 renal and with SF-268 CNS was over 100 µM each time. For the same compound, the values for the TGI with A549 NSCLC, in the experiment on SN12C renal and in the experiment on OVCAR-8 ovarian were over 100 µM, over 100 µM and 57.1 µM, respectively.
Turning to `NC(=O)CC(Nc1ncc2c(n1)-c1ccccc1OC2)C(=O)O` (stereo unspecified), the TGI in the experiment with MOLT-4 leukemia, in the experiment with M14 melanoma, in the experiment with NCI/ADR-RES ovarian, in the experiment with HT29 colon, in the experiment with SK-MEL-2 melanoma and in the experiment on TK-10 renal was over 100 µM each time. Moreover, the TGI with SF-268 CNS, with A549 NSCLC, in the experiment on SN12C renal and in the experiment with OVCAR-8 ovarian was over 100 µM in each case.
Consider `CC(C)(C)N1Cc2ccccc2/C(=C/Sc2ccccc2)C1=O`, for which the TGI was found to be 48.4 µM in the experiment with MOLT-4 leukemia; 25.2 µM in the experiment with M14 melanoma; 33.6 µM in the experiment on NCI/ADR-RES ovarian; 35.6 µM with HT29 colon; 31.4 µM with SK-MEL-2 melanoma; 34.8 µM with TK-10 renal. Further, the TGI in the experiment with SF-268 CNS is 20.2 µM; in the experiment on A549 NSCLC, 37.6 µM; in the experiment with SN12C renal it was 23.8 µM; in the experiment with OVCAR-8 ovarian, 22.3 µM.
For the compound `Cc1ccc(O)c(C2=NNC(c3cccc(Br)c3)C2)c1` (stereo unspecified), the TGI in the experiment with MOLT-4 leukemia, in the experiment on M14 melanoma, with NCI/ADR-RES ovarian, in the experiment with HT29 colon, in the experiment on SK-MEL-2 melanoma and with TK-10 renal was over 100 µM each time. Besides, the TGI in the experiment with SF-268 CNS, in the experiment on A549 NSCLC, in the experiment with SN12C renal and in the experiment with OVCAR-8 ovarian was over 100 µM in each case.
Turning to `Cc1cc(S(=O)(=O)Nc2nc(N)nc(N3N=CCC3C)n2)c(S)cc1Cl` (stereo unspecified), the TGI in the experiment with MOLT-4 leukemia, with M14 melanoma, with NCI/ADR-RES ovarian, in the experiment on HT29 colon, in the experiment with SK-MEL-2 melanoma and in the experiment with TK-10 renal was over 10 µM in each case. In addition, the TGI in the experiment on SF-268 CNS, with A549 NSCLC, with SN12C renal and in the experiment on OVCAR-8 ovarian was over 10 µM in each case.
Take `CCCCSc1n/c(=C\c2ccc(N(C)C)cc2)c2nnnn12`: the TGI with MOLT-4 leukemia, in the experiment on M14 melanoma, in the experiment with NCI/ADR-RES ovarian, in the experiment with HT29 colon, with SK-MEL-2 melanoma and in the experiment with TK-10 renal was over 100 µM each time. The TGI with SF-268 CNS, in the experiment on A549 NSCLC, in the experiment on SN12C renal and with OVCAR-8 ovarian was over 100 µM throughout.
In the case of `COc1ccc2c(c1)CCc1c-2n(CCN(C)C)c2ccc(OC)cc12`, the TGI in the experiment on MOLT-4 leukemia was 59.1 µM; in the experiment with M14 melanoma it was over 100 µM; in the experiment on NCI/ADR-RES ovarian, 46.1 µM; in the experiment with HT29 colon it was over 100 µM; in the experiment on SK-MEL-2 melanoma, 40 µM; in the experiment with TK-10 renal, 80.3 µM. For the same compound, the TGI in the experiment on SF-268 CNS was over 100 µM; in the experiment with A549 NSCLC, over 100 µM; in the experiment with SN12C renal, over 100 µM; in the experiment with OVCAR-8 ovarian, 51 µM.
`CC[N+](C)(CC)CCN1C(=O)c2ccccc2S1(=O)=O`: the TGI in the experiment on MOLT-4 leukemia, in the experiment on M14 melanoma, in the experiment on NCI/ADR-RES ovarian, with HT29 colon, in the experiment with SK-MEL-2 melanoma and in the experiment on TK-10 renal was over 100 µM throughout. Besides, the TGI with SF-268 CNS, in the experiment on A549 NSCLC, in the experiment with SN12C renal and in the experiment with OVCAR-8 ovarian was over 100 µM throughout.
As to `O=C(NCCNCCO)N/N=C/c1ccc(Cl)cc1`, the TGI in the experiment on MOLT-4 leukemia, in the experiment on M14 melanoma, in the experiment on NCI/ADR-RES ovarian, in the experiment on HT29 colon, in the experiment on SK-MEL-2 melanoma and in the experiment with TK-10 renal was over 100 µM throughout. Further, the TGI with SF-268 CNS, with A549 NSCLC, with SN12C renal and in the experiment with OVCAR-8 ovarian was over 100 µM each time.
As to `O=C1OS2(OCc3cccc4cccc2c34)c2ccccc21` (stereo unspecified), the TGI in the experiment on MOLT-4 leukemia, in the experiment with M14 melanoma, with NCI/ADR-RES ovarian, with HT29 colon, with SK-MEL-2 melanoma and with TK-10 renal was over 100 µM each time. Moreover, the TGI in the experiment on SF-268 CNS, in the experiment with A549 NSCLC and in the experiment with SN12C renal was over 100 µM throughout.
For the compound `NC(N)=N/N=C/c1nc2sccn2c1[N+](=O)[O-]`, the TGI in the experiment with M14 melanoma was 52.7 µM; with NCI/ADR-RES ovarian, over 100 µM; in the experiment on HT29 colon it was 67.7 µM; with SK-MEL-2 melanoma, 41.8 µM; in the experiment on TK-10 renal, over 100 µM; in the experiment with SF-268 CNS, over 100 µM. Moreover, the TGI in the experiment on A549 NSCLC, with SN12C renal and in the experiment on OVCAR-8 ovarian was over 100 µM in each case.
On to `OCCN=C1Nc2ccc(Cl)cc2C(=S)N2CSC[C@@H]12`, for which the TGI in the experiment on MOLT-4 leukemia, in the experiment on M14 melanoma, in the experiment on NCI/ADR-RES ovarian, in the experiment with HT29 colon, in the experiment with SK-MEL-2 melanoma and with SF-268 CNS was over 100 µM throughout. Besides, the TGI in the experiment with A549 NSCLC, in the experiment on SN12C renal and with OVCAR-8 ovarian was over 100 µM in each case.
